Source: US9522128B2 (FUNDACION PARA LA INVESTIGACION BIOMEDICA DEL HOSPITAL …, priority 2008, dated 2016)
Like-named read-outs stand apart in the source and are kept apart here.

Assays:
[1] = system: renal degradation of imipenem; details: with cilastatin; cited from earlier work
[2] = system: primary cultures of proximal tubular cells (PTCs); experiment: Cell growth dynamics in primary culture of proximal tubular cells
[3] = system: CD3+ lymphocytes (human T cells)
Protocol: The sample was centrifuged at 120 g and was resuspended in 750 μL of RPMI medium (in the absence of FCS: fetal calf serum) to quantify the number of cells available using trypan blue. One hundred thousand cells per point were distributed.
Incubation was performed for 4 hours at 37° C. Cells were centrifuged for 6 minutes at 1200 rpm. The precipitate was resuspended in 100 μL of buffer (10 mmol/L HEPES, 150 mmol/L NaCl, 5 mmol/L KCl, 1 mmol/L Mg Cl2, 1.8 mmol/L CaCl2) and 5 μL of annexin-V. It was incubated in the dark for 10 minutes.
Intensity of green fluorescence of cells was quantified as displacement in the logarithmic scale from control (cells growing in 10% FCS) versus the number of cells analyzed. Cell debris was excluded from the analysis.

tubular endothelium = details: dose of 1 g/kg/day; Sack 1985; cited from earlier work
humans = details: period immediately subsequent to transplant; cited from earlier work
DHP-I = DHP-I (Homo sapiens, UniProt P16444); details: Koller 1985, Campbell 1988; cited from earlier work
[4] = Excerpt: No data have been reported for humans. […] The resulting plot is shown in FIG. 14 (diamonds: rabbit data; triangles: rat data; blank squares: data from pig experiments; filled squares including a white point: data from the summary of product characteristics for humans).
[5] = system: primary cultures of proximal tubular cells; details: cilastatin added to cultures with nephrotoxics, 24 hours
Protocol: Cells shed to the supernatant were collected by direct aspiration using an automatic pipet, and adherent cells were separated from the culture plate by trypsinization.
The PTCs thus obtained were separately fixed and permeabilized with 70% ethanol and stored at −20° C. After removing ethanol, cells were washed two times with PBS.
The count was performed in a FACScan cytometer (Beckton Dickinson) equipped with a simple argon ion laser. Windows were fixed based on the characteristics of FSC (size), SSC (complexity), FL2-H (height), FL2-A (area), and FL2-W (width). The latter two were used to rule out cell doublets. Analysis was performed using WinMDI 2.9 software.

[6] = system: primary cultures of proximal tubular cells; details: 48 h, 11 nephrotoxics
Wistar rats [7] = experiment: Preliminary in vivo study of cilastatin nephroprotection against acute toxic renal failure caused by cisplatin; set-up: species or system rat; details: cisplatin 5 mg/kg plus cilastatin 75 or 150 mg/kg every 12 hours intraperitoneal
Protocol: Five animals, each subjected to a different treatment regimen, were preliminarily used.
At the time of killing, animals were weighed and anesthetized with ketamine (10 mg/kg) and diazepam (4 mg/kg). Once anesthetized, blood was drawn by cannulation of the abdominal aorta at the bifurcation level. This blood was kept for 30 minutes at 37° C. and subsequently for 1 hour at 4° C., after which it was centrifuged at 2000 rpm for 15 minutes at 4° C. This allowed for separation of blood serum, which was stored at −80° C. until use.

Wistar rats [8] = experiment: Extended in vivo study of cilastatin nephroprotection against acute toxic renal failure caused by cisplatin
Excerpt: A total of 28 animals were used, which were randomized into 4 groups with a sample size n=6-8 animals per group.
Throughout the period, animals were given free access to both water and feed (standard diet) in a controlled light, temperature, and humidity environment. One day before killing, animals were introduced into metabolic cages with free access to feed and water ad libitum to collect 24-hour urine, in order to quantify urine output and protein concentration.
At the time of killing, animals (previously weighed) were anesthetized in the experimental operating room with ketamine (10 mg/kg) and diazepam (4 mg/kg) and were drawn blood by cannulation of the abdominal aorta at the bifurcation level. Blood was first incubated for 30 minutes at 37° C., and then for one hour at 4° C. Subsequent centrifugation at 2000 rpm for 15 minutes at 4° C. allowed for obtaining blood serum, which was frozen at −80° C. until use. […] Kidneys were subsequently removed, decapsulated, and kept in cold saline during their handling to minimize tissue degradation. Kidneys (right and left) were weighed and were subsequently handled similarly. […] The rest of the right kidneys, as well as left kidneys, were separated into cortex and medulla, and both samples were frozen in liquid nitrogen and stored at −80° C. until use.
Hemodynamic variables and serum and urine kidney function parameters (FIG. 14) were measured using a Dimension RxL autoanalyzer from Dade-Behring according to manufacturer instructions.
This time, urine samples were taken before killing, as indicated in the section describing the procedure.

[9] = system: primary cultures of proximal tubular cells; details: 24 hours, with cilastatin; vancomycin, cyclosporin, tacrolimus, acetaminophen, cisplatin, gentamicin
Protocol: Cells were subsequently detached, and the final volume obtained was recorded. Cell lysate was subjected to a thermal shock, for which it was first heated at 100° C. for 5 min and then placed on ice. Each sample was subjected to sudden decompression. Samples were centrifuged at 12000 rpm for 5 min, and supernatant was collected.
For this purpose, PTCs were incubated with the different nephrotoxics under study, and the cumulative intracellular concentration of toxics in PTCs was quantified, in accordance with the procedure described at the start of the Examples.

[10] = system: primary cultures of proximal tubular cells; experiment: Mitochondrial activity using MTT reduction; assay type: cell-based, pig; details: presence of cilastatin with nephrotoxics
Protocol: Mitochondrial functionality of PTCs was measured by metabolic reduction of 3-(4,5-dimethylthiazole-2-yl)-2,5-diphenyltetrazole bromide (MTT, supplied by Calbiochem), performed by the mitochondrial enzyme succinate dehydrogenase, yielding a blue-colored compound (formazan). […] MTT was subsequently added to each well at a final concentration of 0.5 mg/mL and incubated for 3 hours at 37° C. in the dark. Once this incubation was completed, 100 μL of lysis buffer (20% SDS in 50% N,N-dimethylformamide, pH 4.7) were added, and the plate was incubated overnight at 37° C. in the dark. Absorbance was measured at 595 nm on the following day.
Percent viability was calculated as follows:
Real time MTT reduction was measured in semiconfluent proximal cells seeded in 24-well plates (16 mm in diameter) in which culture medium was replaced by MTT at 0.5 mg/mL of final concentration in PBS. This reduction was determined by measuring absorbance at 595 nm with an Olympus IX70 inverted fluorescence microscope coupled to a photomultiplier controlled from a SLM Aminco 2000 fluorimeter. […] In this test, as in the previous ones, vancomycin was directly added to the plate during measurement of absorbance. […]

[11] = system: cultures of cells of the proximal tubular epithelium; experiment: Scanning electron microscopy of cell morphology; details: 11 days; cyclosporin A 1 μg/mL without or with cilastatin 200 μg/mL
[12] = system: primary cultures of proximal tubular cells; details: co-incubation with cilastatin; 24 hours aggression (12 hours for cisplatin), long-term survival 7 days
[13] = cited from earlier work; for nature (neutral, anionic, apolar) at physiological pH: 7 or close to 7
[14] = system: cells of pig proximal tubular epithelium in primary culture
rabbits = details: rabbit, in vivo; cited from earlier work

Sequence of DHP-I (P16444 17-385): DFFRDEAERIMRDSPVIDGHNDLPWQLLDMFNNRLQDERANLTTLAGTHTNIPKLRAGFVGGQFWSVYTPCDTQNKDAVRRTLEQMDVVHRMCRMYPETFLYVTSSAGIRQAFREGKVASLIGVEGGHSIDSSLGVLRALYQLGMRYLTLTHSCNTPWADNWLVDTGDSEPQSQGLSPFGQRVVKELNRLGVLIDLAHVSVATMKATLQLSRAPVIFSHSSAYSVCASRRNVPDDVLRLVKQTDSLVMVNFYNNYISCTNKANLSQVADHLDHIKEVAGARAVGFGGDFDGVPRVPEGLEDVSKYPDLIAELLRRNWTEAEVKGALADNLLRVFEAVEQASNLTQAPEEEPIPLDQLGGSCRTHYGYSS

In the case of `CC1(C)C[C@@H]1C(=O)N/C(=C\CCCCSC[C@H](N)C(=O)O)C(=O)[O-].[Na+]` (relative stereo) [cilastatin, monosodium salt of [R—[R*,S*—(Z)]]-7-[(2-amino-2-carboxyethyl)thio]-2-[[(2,2-dimetylcyclopropyl)carbonyl]amino]-2-heptenoic acid], the “urinary excretion rate of imipenem” value [1] is given as “up to 70 % of the initial imipenem dose administered”, the “effect of co-incubation with cilastatin on the effect of nephrotoxics on cell growth” value ([2]; cilastatin 200 μg/mL with cyclosporin A or tacrolimus) is given as “partially prevents” and the “effect upon growth dynamics, cell confluence, or monolayer morphology” value ([2]; increasing cilastatin doses for 14 days, up to almost 10 times plasma concentrations reached in vivo) is given as “No significant effect”. The “day of culture from which cell growth recovers with cilastatin” value ([2]; with cyclosporin) was no less than 11 days, the “time from which cell growth recovers with cilastatin” value ([2]; with tacrolimus (FK-506), decrease from day 7) was “from the same time” and the “protective effect on cyclosporin A induced T cell death” value ([3]; cilastatin 200 μg/mL) was “absence of a protective effect”. The “sign of renal toxicity” value (tubular endothelium) was “could cause sloughing of tubular endothelium”, the “nephrotoxicity induced by CsA” value (humans) was “may effectively counteract” and the “conversion of leukotriene D4 to leukotriene E4” value (DHP-I) was “strongly inhibited”. For the same compound, the “plasma level up to which the dose/plasma level relationship is linear” value ([4]; all species) was “around 800 mg/L”, the minimum effective dose ([4]; estimated) was 10 mg/kg body weight and the “estimated minimum nephroprotective dose in humans” value ([4]; mean value for a human adult) was 750 mg/day. The “number of dead cells (sloughed to supernatant, anoikis)” value [5] was “reduced in all cases the number of dead cells”, the “induction of apoptosis (nucleosomes) on co-incubation of nephrotoxics plus cilastatin” value [6] was “induction of apoptosis ceases or is significantly reduced” and the “weight loss or changes in plasma creatinine” value (Wistar rats [7]) was “no significant weight loss or changes in plasma creatinine”. For the same compound, the “increase of mean weight” value (Wistar rats [8]; cilastatin 75 mg/kg every 12 hours without cisplatin) was “approximately 14 grams”, the “proteinuria and urinary osmolality” value (Wistar rats [8]; cisplatin 5 mg/kg, cilastatin 75 mg/kg every 12 hours intraperitoneal) was “completely reversed the values to normal levels” and the “FINAL WEIGHT” value (Wistar rats [8]; end of the extended study (5 days), mean ± standard error) was 273 ± 7. For the same compound, the “intracellular accumulation of nephrotoxics” value [9] was “interferes with intracellular administration of all nephrotoxics tested”, the “restoration of mitochondrial electronic transfer capacity” value [10] was “totally or partially restores” and the “cell morphology by scanning electron microscopy” value [11] was “these changes do not usually occur”. The “cell growth / colony-forming units after nephrotoxic aggression (crystal violet)” value [12] was “totally or partially restores cell growth”.

For `CC(=O)Nc1ccc(O)cc1` [Acetaminophen, N-(4-hydroxyphenyl)ethanamide], the “SOLUBILITY IN WATER” value ([13]; in words) is given as “moderately soluble in”, the “SOLUBILITY IN ORGANIC MEDIA” value ([13]; in words, in ethanol and acetone) is given as “soluble in ethanol and acetone” and the “SOLUBILITY IN ORGANIC MEDIA” value ([13]; in words, in serum) is given as “insoluble in serum”. The “nature (neutral, anionic, apolar) at physiological pH” value (shortened to “nature … at physiological pH”) [13] was “neutral”.

In the case of `C[C@@H]1[C@H](O)[C@@H](C)/C=C/C=C/C=C/C=C/C=C/C=C/C=C/[C@H](O[C@@H]2O[C@H](C)[C@@H](O)[C@H](N)[C@@H]2O)C[C@@H]2O[C@](O)(C[C@@H](O)C[C@@H](O)[C@H](O)CC[C@@H](O)C[C@@H](O)CC(=O)O[C@H]1C)C[C@H](O)[C@H]2C(=O)O` [Amphotericin B], the “SOLUBILITY IN ORGANIC MEDIA” value ([13]; DMF + HCl) is listed as “DMF + HCl (60-80 mg/mL)”, the “SOLUBILITY IN ORGANIC MEDIA” value ([13]; DMF) is listed as “soluble in DMF (2-4 mg/mL),” and the “SOLUBILITY IN ORGANIC MEDIA” value ([13]; DMSO) is listed as “DMSO (30-40 mg/mL)”. For the same compound, the “nature … at physiological pH” value [13] was “anionic” and the “SOLUBILITY IN WATER” value ([13]; water at pH 2 or pH 11) was 11 (0.1 mg/mL).

For `ClC(Cl)Cl` [Chloroform, CHCl3], the “nature … at physiological pH” value [13] is listed as “apolar”.

In the case of `N.N.[Cl][Pt][Cl]` [Cisplatin, cis-diaminodychloroplatin II], the “nature … at physiological pH” value [13] is listed as “neutral”.

In the case of `O=C(O)P(=O)(O)O` [Foscarnet, phosphonoformic acid], the “SOLUBILITY IN ORGANIC MEDIA” value ([13]; in words) is listed as “insoluble”, the “SOLUBILITY IN WATER” value ([13]; in words) is listed as “soluble in water” and the “nature … at physiological pH” value [13] is listed as “anionic”.

For `C[C@H](O)C(=O)Nc1c(I)c(C(=O)NC(CO)CO)c(I)c(C(=O)NC(CO)CO)c1I` [Iopamidol], the “SOLUBILITY IN ORGANIC MEDIA” value ([13]; in words) is listed as “soluble in methanol insoluble”, the “SOLUBILITY IN WATER” value ([13]; in words) is listed as “soluble in water” and the “nature … at physiological pH” value [13] is listed as “anionic”.

In the case of `OC[C@@H](O)[C@@H](O)[C@H](O)[C@H](O)CO` [Mannitol], the “SOLUBILITY IN WATER” value [13] is given as “(1 g/5.5 mL)”, the “SOLUBILITY IN WATER” value ([13]; in words) is given as “soluble in water” and the “nature … at physiological pH” value [13] is given as “anionic”.

In the case of `C=CC[C@@H]1/C=C(\C)C[C@H](C)C[C@H](OC)[C@H]2O[C@@](O)(C(=O)C(=O)N3CCCC[C@H]3C(=O)O[C@H](/C(C)=C/[C@@H]3CC[C@@H](O)[C@H](OC)C3)[C@H](C)[C@@H](O)CC1=O)[C@H](C)C[C@@H]2OC.O` [Tacrolimus], the “cell growth in the presence of the nephrotoxic” value ([2]; from the time of seeding, cyclosporin A 1 or 10 μg/mL, tacrolimus 50 ng/mL) is listed as “dose-dependently reduced”, the “day of culture from which cell growth is significantly decreased compared to control” value ([2]; post hoc analysis, cyclosporin 1 μg/mL and 10 μg/mL, tacrolimus (FK-506)) is listed as no less than 7 days and the “SOLUBILITY IN ORGANIC MEDIA” value ([13]; in words) is listed as “high”. The “SOLUBILITY IN WATER” value ([13]; in words) was “insoluble” and the “nature … at physiological pH” value [13] was “apolar”.

In the case of `CN[C@H](CC(C)C)C(=O)NC1C(=O)N[C@@H](CC(N)=O)C(=O)N[C@H]2C(=O)N[C@H]3C(=O)N[C@H](C(=O)N[C@@H](C(=O)O)c4cc(O)cc(O)c4-c4cc3ccc4O)[C@H](O)c3ccc(c(Cl)c3)Oc3cc2cc(c3OC2O[C@@H](CO)[C@@H](O)[C@H](O)[C@@H]2O[C@@H]2C[C@](C)(N)[C@H](O)[C@@H](C)O2)Oc2ccc(cc2Cl)[C@H]1O` (stereo partly shown) [Vancomycin], the “SOLUBILITY IN WATER” value ([13]; in words) is given as “water-soluble” and the “SOLUBILITY IN WATER” value ([13]; in words, listed as VANCOMYCIN) is given as “high”.

In the case of `CCCCC[C@@H](O)[C@H]1C(=O)O[C@H](C)[C@@H](O)/C=C/C=C/C=C/C=C/C=C(\C)[C@@H](O)C[C@H](O)C[C@H](O)C[C@H](O)C[C@H](O)C[C@H](O)C[C@@H]1O` [filipin], the cell death [14] is reported as “causes cell death in a short time” and the “internalization of fluorescent toxin B labeled caveolae from cell membrane to Golgi apparatus” value ([14]; […], cilastatin 200 μg/mL or filipin 50 μg/mL, pre-incubated 20 minutes) is reported as “prevents their internalization”.

In the case of `C[C@@H](O)[C@H]1C(=O)N2C(C(=O)O)=C(SCCN=CN)C[C@H]12` [imipenem], the tubular toxicity (rabbits) is given as “may cause tubular toxicity”.

With Cyclosporin A the “percent cell death of human T cells” value ([3]; cyclosporin A at different doses) was “dose-response effect of the lethal effect” and the “cell morphology by scanning electron microscopy” value [11] was “causes cytosolic condensation, cell rupture, and monolayer disruption”.

For Gentamicin, the “nature … at physiological pH” value [13] is listed as “neutral”.
